{"source": "patent US4670540A", "about": "“Novel peptide” (Ajinomoto Co., Inc., priority 1984, dated 1987)", "key": {"chick rectum": {"system": "chick rectum", "experiment": "Spasmolytic activity in chick rectum", "format": "cell-based", "conditions": "rectum contracted with carbachol (2×10^-7 M); specific activity, α-hANP[1-28] = 100; mean ± standard error, number of experiments in parentheses", "description": "(2) Spasmolytic activity in chick rectum. Male, 2- to 3-week-old chicks weighing 155-175 g were used. After the chicks were anesthetized with pentobarbital (6 mg/kg, ip), their rectums were excised. Krebs solution was used. The rectums were suspended in 20 ml organ-bath aerated with 5% carbon dioxide and 95% oxygen and kept at 37° ±0.5° C. Contractile tension of the rectum was determined isotonically. The isotonic recording system used was the same as that used in testing the rat aortic preparations. The rectal preparations were stabilized by keeping them under 0.5 g of tension conditions for 1 hour. The rectal preparations contracted with carbachol (2×10^-7 M),were exposed to ANP to examine its relaxing effect. As with the rat aortic preparations, ED50 for the standard α-haNP(1-28) and for the ANP fragment were determined, and the specific activity were calculated."}, "rat aortic strips": {"system": "rat aortic strips", "experiment": "Spasmolytic activity in rat aortic strips", "format": "cell-based", "conditions": "aortic strips contracted with norepinephrine (5×10^-8 M); specific activity, α-hANP[1-28] = 100; mean ± standard error, number of experiments in parentheses", "description": "(1) Spasmolytic activity in rat aortic strips. Male Sprague-Dawley rats weighing 250-280 g were used. After the rats were decapitated, their thoracic aorta were obtained and aortic helical strips were prepared. Krebs solution was used in this assay system. The aortic strips were suspended in a 20 ml organ-bath which was aerated with 5% carbon dioxide and 95% oxygen and kept at 37° ±0.5° C. The aortic tension was recorded isotonically. The isotonic recording system, consisted of a transducer and amplifier (ME commercial ME4012) and a recorder (Sanei 8K21). A resting tension of 0.5 g was loaded on the aortic strips. The prepared strips were left under the described conditions for 1 hour to obtain the stable tension. The aortic preparation contracted with norepinephrine (5×10^-8 M) was exposed to ANP to examine its relaxant activity. The dose response curve was obtained for the α-hANP(1-28) and the ANP fragment in the same preparation. The 50% effective dose (ED50) for each preparation was obtained and the ratio was used as the specific activity."}}, "data": [{"compound": "CC[C@H](C)[C@@H]1NC(=O)[C@H](CCCNC(=N)N)NC(=O)[C@H](CC(=O)O)NC(=O)[C@H](CCSC)NC(=O)[C@H](CCCNC(=N)N)NC(=O)CNC(=O)CNC(=O)[C@H](Cc2ccccc2)NC(=O)[C@@H](NC(=O)[C@H](CO)NC(=O)[C@H](CO)NC(=O)[C@H](CCCNC(=N)N)NC(=O)[C@H](CCCNC(=N)N)NC(=O)[C@H](CC(C)C)NC(=O)[C@@H](N)CO)CSSC[C@@H](C(=O)N[C@@H](CC(N)=O)C(=O)N[C@@H](CO)C(=O)N[C@@H](Cc2ccccc2)C(=O)N[C@@H](CCCNC(=N)N)C(=O)N[C@@H](Cc2ccc(O)cc2)C(=O)O)NC(=O)CNC(=O)[C@H](CC(C)C)NC(=O)CNC(=O)[C@H](CO)NC(=O)[C@H](CCC(N)=O)NC(=O)[C@H](C)NC(=O)CNC1=O", "note": "[α-hANP[1-28], α-human atrial natriuretic peptide]", "values": [{"measurement": "Spasmolytic Activity in Chick Rectum (ratio of ED50 to the standard hANP (1-28))", "setting": "chick rectum", "result": 100}, {"measurement": "Spasmolytic Activity in Rat Aorta (ratio of ED50 to the standard hANP (1-28))", "setting": "rat aortic strips", "result": 100}]}, {"compound": "(Nle^12)α-hANP(1-28) [[Nle^12]-α-hANP[1-28]]", "values": [{"measurement": "Spasmolytic Activity in Chick Rectum (ratio of ED50 to the standard hANP (1-28))", "setting": "chick rectum", "result": "70.3 ± 10.9"}, {"measurement": "Spasmolytic Activity in Rat Aorta (ratio of ED50 to the standard hANP (1-28))", "setting": "rat aortic strips", "result": "80.5 ± 12.2"}]}]}
